We go through three compounds from patent US10392428B2, “GLP-1 derivatives and uses thereof” (Novo Nordisk A/S, priority 2014, dated 2019).

Series [1] is described as follows: Pharmacokinetic study in minipigs (i.v.). The settings on record: male, Göttingen, minipig, in vivo, iv; minipigs, i.v., 15 nmol/kg; harmonic mean; read-out: Terminal half-live (converted). The procedure: The derivatives of Examples 12, 14, and 15 were dosed 2 nmol/kg. The derivatives of Examples 1 and 2 were dosed 15 nmol/kg.
Series [2] addresses T1, human GLP-1 receptor (Homo sapiens, UniProt P43220).
T1 construct: expressed in transfected cells; host or cells: membrane preparation from BHK cells, clone FCW467-12A (parent line BHKTS13)
Description: GLP-1 receptor binding: competitive binding assay (125I-GLP-1, SPA) on isolated membranes at low and high HSA.
Description: The purpose of this example is to test the receptor binding of the GLP-1 derivatives in vitro. The receptor binding is a measure of affinity of a derivative for the human GLP-1 receptor.
Each derivative is added in a series of concentrations to isolated membranes containing the human GLP-1 receptor and displacement of the labelled ligand is monitored. The receptor binding is reported as the concentration at which half of the labelled ligand is displaced from the receptor, the IC50 value.
Buffer 1 consisted of 20 mM Na-HEPES plus 10 mM EDTA and pH was adjusted to 7.4. Buffer 2 consisted of 20 mM Na-HEPES plus 0.1 mM EDTA and pH was adjusted to 7.4. Assay buffer consisted of 50 mM HEPES supplemented with 5 mM EGTA, 5 mM MgCl2, 0.005% Tween 20 and pH was adjusted to 7.4. An 8% albumin stock consisted of HSA dissolved at 8% (w/v) in assay buffer. An 0.02% albumin stock consisted of HSA dissolved at 0.02% (w/v) in assay buffer.
The cells express the human GLP-1 receptor.
The cells were grown at 5% CO2 in DMEM, 10% fetal calf serum, 1% Pen/Strep (Penicillin/Streptomycin) and 1.0 mg/ml of the selection marker G418.
To make a membrane preparation the cells were grown to approximately 80% confluence. The cells were washed twice in phosphate-buffered saline and harvested. The cells were pelleted using a brief centrifugation and the cell pellet was kept on ice. […] The homogenate was centrifuged for 15 minutes. The pellet was re-suspended (homogenised) in 10 ml buffer 2 and centrifuged. This step was repeated once more. The resulting pellet was re-suspended in buffer 2 and the protein concentration was determined. The membranes were aliquoted and stored at minus 80° C.
For the receptor binding assay in the presence of low HSA (0.005%) 50 μl of the assay buffer was added to each well of an assay plate.
For the receptor binding assay in the presence of high HSA (2%) 50 μl of the 8% albumin stock was added to each well of an assay plate.
Cell membrane aliquots were thawed and diluted to their working concentration. Fifty μl were added to each well in the assay plate.
WGA SPA beads were suspended in assay buffer at 20 mg/ml. The suspension was diluted to 10 mg/ml in assay buffer just prior to addition to the assay plate. Fifty μl were added to each well in the assay plate.
A 25 μl aliquot was reserved for measuring total counts/well.
The assay plate was incubated for 2 h at 30° C.
The assay plate was centrifuged for 10 min.
The assay plate was read in a Packard TopCount NXT instrument.
The data from the TopCount instrument were transferred to Graph Pad Prism software. Individual replicates were analysed using non-linear regression. IC50 values were calculated by the software and reported in nM. The reported values are averages of all of the measured values for each compound.

Series [3] concerns the target T1, human GLP-1 receptor. The series can be described thus: In vitro potency: CRE luciferase reporter gene assay in BHK cells expressing the human GLP-1 receptor. Format: cell-based. Conditions: whole cell reporter gene assay, 3 h incubation, average of at least two replicates. (A reporter such as luciferase makes a cellular process visible.)
Description: The purpose of this example is to test the activity, or potency, of the GLP-1 derivatives in vitro. The in vitro potency is the measure of human GLP-1 receptor activation in a whole cell assay.
In vitro potency was determined by measuring the response of the human GLP-1 receptor in a reporter gene assay. The assay was performed in a stably transfected BHK cell line that expresses the human GLP-1 receptor and contains the DNA for the cAMP response element (CRE) coupled to a promoter and the gene for firefly luciferase (CRE luciferase). When the human GLP-1 receptor is activated it results in the production of cAMP, which in turn results in the luciferase protein being expressed. When assay incubation is completed the luciferase substrate (luciferin) is added and the enzyme converts luciferin to oxyluciferin to produce bioluminescence. The luminescence is measured as the readout for the assay.
The cells were cultured at 5% CO2 in cell culture medium. They were aliquoted and stored in liquid nitrogen. Before each assay an aliquot was taken up and washed twice in PBS before being suspended at the desired concentration in the assay specific buffer.
Assay medium consisted of DMEM w/o phenol red, 10 mM Hepes and 1χ Glutamax. The assay buffer consisted of 2% ovalbumin and 0.2% Pluronic F-68 in assay medium.
1) Cell stocks were thawed in a 37° C. water bath.
2) Cells were washed three times in PBS.
3) Cells were counted and adjusted to 5×10^3 cells/50 μl (1×10^5 cells/ml) in assay medium. A 50 μl aliquot of cells was transferred to each well in the assay plate.
4) Stocks of the test compounds and reference compounds were diluted to a concentration of 0.2 μM in assay buffer. […] 8) A 100 μl aliquot of steadylite plus reagent was added to each well of the assay plate. […] 10) Each assay plate was read in a BioTek Synergy 2 Multi-Mode Reader.
The data from the BioTek Synergy 2 Multi-Mode Reader were transferred to GraphPad Prism software. […]
A minimum of two replicates was measured for each sample. The reported EC50 values are averages of all of the measured values for each compound.
Setting [4] is: High HSA IC50 (nM), high HSA (2.0% final assay concentration).

Each structure is given as a SMILES string. pEC50: −log10 of the molar value. Non-standard residues stand in square brackets, D forms with d. Residues, ends and D or L forms follow the SMILES beside them. Groups on a side chain read outwards from the residue. *: point of attachment. X2 = O=C(O)CCCCCCCCCCCCCCCCCCC(=O)NC[C@H]1CC[C@H](C(=O)N[C@@H](CCC(=O)NCCCC[C@H](NC(=O)CC[C@H](NC(=O)[C@H]2CC[C@H](CNC(=O)CCCCCCCCCCCCCCCCCCC(=O)O)CC2)C(=O)O)C(=O)*)C(=O)O)CC1; Desaminohistidyl = O=C(CCc1c[nH]cn1)*; AEEA = NCCOCCOCC(=O)O; Aib = CC(C)(N)C(=O)O

T1 sequence (P43220 24-463): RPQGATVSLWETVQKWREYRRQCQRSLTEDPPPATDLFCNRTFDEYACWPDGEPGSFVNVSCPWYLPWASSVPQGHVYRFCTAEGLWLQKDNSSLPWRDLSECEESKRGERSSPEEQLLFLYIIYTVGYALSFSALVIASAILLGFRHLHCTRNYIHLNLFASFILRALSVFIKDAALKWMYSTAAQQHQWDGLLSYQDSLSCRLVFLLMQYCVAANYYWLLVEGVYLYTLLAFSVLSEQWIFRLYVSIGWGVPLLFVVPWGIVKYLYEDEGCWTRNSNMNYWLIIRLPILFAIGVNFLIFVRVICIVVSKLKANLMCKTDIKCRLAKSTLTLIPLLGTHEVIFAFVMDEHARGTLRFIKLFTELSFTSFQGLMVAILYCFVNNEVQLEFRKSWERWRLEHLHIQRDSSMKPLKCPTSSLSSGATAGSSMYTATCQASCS

For orientation: IC50 means the concentration needed to halve the response being measured. Turning to `CC[C@H](C)[C@H](NC(=O)[C@H](Cc1ccccc1)NC(=O)[C@H](CCC(=O)O)NC(=O)[C@H](CCCNC(=N)N)NC(=O)[C@H](C)NC(=O)[C@H](C)NC(=O)[C@H](CCC(N)=O)NC(=O)[C@H](CCC(=O)O)NC(=O)[C@H](CCC(=O)O)NC(=O)[C@H](CC(C)C)NC(=O)[C@H](Cc1ccc(O)cc1)NC(=O)[C@H](CO)NC(=O)[C@H](CO)NC(=O)[C@@H](NC(=O)[C@H](CC(=O)O)NC(=O)[C@H](CO)NC(=O)[C@@H](NC(=O)[C@H](Cc1ccccc1)NC(=O)[C@@H](NC(=O)CNC(=O)[C@H](CCC(=O)O)NC(=O)C(C)(C)NC(=O)[C@@H](N)Cc1c[nH]cn1)[C@@H](C)O)[C@@H](C)O)C(C)C)C(=O)N[C@@H](C)C(=O)N[C@@H](Cc1c[nH]c2ccccc12)C(=O)N[C@@H](CC(C)C)C(=O)N[C@H](C(=O)N[C@@H](CCCNC(=N)N)C(=O)NCC(=O)N[C@@H](CCCNC(=N)N)C(=O)N[C@@H](CCCCNC(=O)COCCOCCNC(=O)[C@H](CCCCNC(=O)COCCOCCNC(=O)COCCOCCNC(=O)CC[C@H](NC(=O)[C@H]1CC[C@H](CNC(=O)CCCCCCCCCCCCCCCCCCC(=O)O)CC1)C(=O)O)NC(=O)COCCOCCNC(=O)COCCOCCNC(=O)CC[C@H](NC(=O)[C@H]1CC[C@H](CNC(=O)CCCCCCCCCCCCCCCCCCC(=O)O)CC1)C(=O)O)C(=O)O)C(C)C` [Example 1, N{Epsilon-37}-[2-[2-[2-[[(2S)-2,6-bis[[2-[2-[2-[[2-[2-[2-[[(4S)-4-carboxy-4-[[4-[(19-carboxynonadecanoylamino)methyl]cyclohexanecarbonyl]amino]butanoyl]amino]ethoxy]ethoxy]acetyl]amino]ethoxy]ethoxy]acetyl]amino]hexanoyl]amino]ethoxy]ethoxy]acetyl]-[Aib8,Glu22,Arg26,Arg34,Lys37]-GLP-1-(7-37)-peptide], in series [1], the half-life was 162 h. Further, the IC50 on human GLP-1 receptor [2] (setting [4]) was 140 nM.

The term pEC50 denotes the negative decadic logarithm of the EC50, by convention in mol/L. The low end stands for a large EC50, the high end for a small EC50. As for `CC[C@H](C)[C@H](NC(=O)[C@H](Cc1ccccc1)NC(=O)[C@H](CCC(=O)O)NC(=O)[C@H](CCCNC(=N)N)NC(=O)[C@H](C)NC(=O)[C@H](C)NC(=O)[C@H](CCC(N)=O)NC(=O)[C@H](CCC(=O)O)NC(=O)[C@H](CCC(=O)O)NC(=O)[C@H](CC(C)C)NC(=O)[C@H](Cc1ccc(O)cc1)NC(=O)[C@H](CO)NC(=O)[C@H](CO)NC(=O)[C@@H](NC(=O)[C@H](CC(=O)O)NC(=O)[C@H](CO)NC(=O)[C@@H](NC(=O)[C@H](Cc1ccccc1)NC(=O)[C@@H](NC(=O)CNC(=O)[C@H](CCC(=O)O)NC(=O)C(C)(C)NC(=O)[C@@H](N)Cc1c[nH]cn1)[C@@H](C)O)[C@@H](C)O)C(C)C)C(=O)N[C@@H](C)C(=O)N[C@@H](Cc1c[nH]c2ccccc12)C(=O)N[C@@H](CC(C)C)C(=O)N[C@H](C(=O)N[C@@H](CCCNC(=N)N)C(=O)NCC(=O)N[C@@H](CCCNC(=N)N)C(=O)N[C@@H](CCCCNC(=O)COCCOCCNC(=O)COCCOCCNC(=O)[C@H](CCCCNC(=O)CC[C@H](NC(=O)[C@H]1CC[C@H](CNC(=O)CCCCCCCCCCCCCCCCCCC(=O)O)CC1)C(=O)O)NC(=O)CC[C@H](NC(=O)[C@H]1CC[C@H](CNC(=O)CCCCCCCCCCCCCCCCCCC(=O)O)CC1)C(=O)O)C(=O)O)C(C)C` [Example 11, N{Epsilon-37}-[2-[2-[2-[[2-[2-[2-[[(2S)-2,6-bis[[(4S)-4-carboxy-4-[[4-[(19-carboxynonadecanoylamino)methyl]cyclohexanecarbonyl]amino]butanoyl]amino]hexanoyl]amino]ethoxy]ethoxy]acetyl]amino]ethoxy]ethoxy]acetyl]-[Aib8,Glu22,Arg26,Arg34,Lys37]-GLP-1-(7-37)-peptide], the IC50 was 150 nM on human GLP-1 receptor [2] (setting [4]) and 1.5 nM at human GLP-1 receptor [2] (Low HSA IC50 (nM), low HSA (max. 0.001% final assay concentration)). This compound also showed a pEC50 on human GLP-1 receptor [3] of 9.89.

With `CC[C@H](C)[C@H](NC(=O)[C@H](Cc1ccccc1)NC(=O)[C@H](CCC(=O)O)NC(=O)[C@H](CCCNC(=N)N)NC(=O)[C@H](C)NC(=O)[C@H](C)NC(=O)[C@H](CCC(N)=O)NC(=O)[C@H](CCC(=O)O)NC(=O)[C@H](CCC(=O)O)NC(=O)[C@H](CC(C)C)NC(=O)[C@H](Cc1ccc(O)cc1)NC(=O)[C@H](CO)NC(=O)[C@H](CO)NC(=O)[C@@H](NC(=O)[C@H](CC(=O)O)NC(=O)[C@H](CO)NC(=O)[C@@H](NC(=O)[C@H](Cc1ccccc1)NC(=O)[C@@H](NC(=O)CNC(=O)[C@H](CCC(=O)O)NC(=O)C(C)(C)NC(=O)CCc1cnc[nH]1)[C@@H](C)O)[C@@H](C)O)C(C)C)C(=O)N[C@@H](C)C(=O)N[C@@H](Cc1c[nH]c2ccccc12)C(=O)N[C@@H](CC(C)C)C(=O)N[C@H](C(=O)N[C@@H](CCCNC(=N)N)C(=O)NCC(=O)N[C@@H](CCCNC(=N)N)C(=O)NCC(=O)NCC(=O)N[C@@H](CCCCNC(=O)COCCOCCNC(=O)COCCOCCNC(=O)COCCOCCNC(=O)COCCOCCNC(=O)[C@H](CCCCNC(=O)CC[C@H](NC(=O)[C@H]1CC[C@H](CNC(=O)CCCCCCCCCCCCCCCCCCC(=O)O)CC1)C(=O)O)NC(=O)CC[C@H](NC(=O)[C@H]1CC[C@H](CNC(=O)CCCCCCCCCCCCCCCCCCC(=O)O)CC1)C(=O)O)C(=O)O)C(C)C` [Example 6, [Imp7,Aib8,Glu22,Arg26,Arg34]-GLP-1-(7-37)-peptidyl-Gly-N{Epsilon}[2-[2-[2-[[2-[2-[2-[[2-[2-[2-[[2-[2-[2-[[(2S)-2,6-bis[[(4S)-4-carboxy-4-[[4-[(19-carboxynonadecanoylamino)methyl]cyclohexanecarbonyl]amino]butanoyl]amino]hexanoyl]amino]ethoxy]ethoxy]acetyl]amino]ethoxy]ethoxy]acetyl]amino]ethoxy]ethoxy]acetyl]amino]ethoxy]ethoxy]acetyl]Lys] (Desaminohistidyl-[Aib]EGTFTSDVSSYLEEQAAREFIAWLVRGRGGK([AEEA-AEEA-AEEA-AEEA-X2])-OH; C-terminus assumed), at human GLP-1 receptor [2] (setting [4]), the IC50 turned out to be 140 nM. This compound also had a pEC50 at human GLP-1 receptor [3] of 9.82.
